Assays:
Type in all cases: in vivo, rat
blood sugar level [1] = assay: Test Example 6: effect of branched amino acids in blood sugar elevation model by glucose (blood sugar level); conditions: Pentobarbital anesthesia; for time at which blood sugar level reached the maximum (peak): after the start of test, 5 weight % glucose-1.8% amino acid i.v.
Procedure: A blood sugar elevation model was made by intravenous administration of glucose to the living body, and the effect was examined with parallel administration of leucine, isoleucine and valine in the above-mentioned model.
(§1) Rats were pre-treated in a similar manner to Test Example 4, and anesthesia in the rats was maintained for 3 hours by intravenous continuous administration of Pentobarbital in a similar manner to Test Example 4. […] Blood was collected (100 μL) through the catheter for administration of aqueous amino acid solution before the start of administration, 30 minutes, 90 minutes, and 180 minutes after the start of administration respectively. And then, the blood sugar level and serum insulin value were determined according to Test Example 1.

blood sugar level [2] = assay: Test Example 8: inhibition of blood sugar elevation by oral isoleucine during sugar tolerance, non-anesthesia vs anesthesia; conditions: 0.5 g/10 mL/kg isoleucine orally, 3 g glucose/kg orally 30 minutes later
Procedure: Non-anesthesia group: rats under overnight fasting conditions were divided into groups by body weight, blood was collected from a tail vein (Pre Value). To a control group and a sample solution group was orally administered 0.5 g/10 mL/kg of OTSUKA distilled water (water for injection; manufactured by OTSUKA PHAMACEUTICAL FACTORY, INC.) and 0.5 g/10 mL/kg of aqueous isoleucine solution, respectively. 50% OTSUKA sugar solution (glucose injection (glucose 100 g/200 mL); manufactured by OTSUKA PHAMACEUTICAL FACTORY, INC.; hereinafter also simply called glucose solution) was administered orally so as to be 3 g glucose/kg 30 minutes after the administration of the sample solution. Blood was collected from the tail vein 30 minutes, 60 minutes, 90 minutes, and 120 minutes after the start of sugar solution administration, and the blood sugar level was determined. Each blood sugar level was considered as 30 minutes value, 60 minutes value, 90 minutes value, and 120 minutes value, respectively in the non-anesthesia group.
Anesthesia group: rats under overnight fasting conditions were divided into groups by body weight, blood was collected from a tail vein (Pre Value). […] The blood sugar level of the blood collected from the tail vein 30 minutes, 60 minutes, 90 minutes, and 120 minutes after the administration of sugar solution was determined. […]

serum insulin value = assay: Test Example 6: serum insulin value with glucose+leucine
Procedure: The serum insulin value was determined by ELISA Method (manufactured by Mevcodia Co.).
as §1

blood sugar level [3] = assay: Test Example 7: blood sugar decrease by oral administration of leucine, anesthesia vs non-anesthesia; conditions: 0.3 g/10 mL/kg leucine suspension orally
Procedure: Non-anesthesia group: rats under overnight fasting conditions were divided into groups by body weight, and blood was collected from a tail vein (Pre Value). Shortly after that, 10 mL/kg of distilled water was orally administered to control group, and 0.3 g/10 mL/kg of leucine suspension to a sample solution group. Blood was collected from the tail vein 90 minutes after the administration of distilled water and the sample solution (90 minutes value).
Anesthesia group: rats under overnight fasting conditions were divided into groups by body weight, and blood was collected from a tail vein (Pre Value). After the blood collection, 10 mL/kg of distilled water was orally administered to a control group, and 0.3 g/10 mL/kg of leucine suspension to a sample solution group. Saflow indwelling needle was kept in the tail vein 30 minutes after the sample solution was administered. After that, anesthesia was introduced by rapid intravenous administration of 30 mg/kg Pentobarbital Sodium. Thereafter, a gastight syringe disposed in micro syringe pump and an indwelling needle were connected through an extension tube, and anesthesia was maintained by continuous intravenous administration of 30 mg/kg/hr. Blood was collected from the tail vein opposite to that wherein the indwelling needle was kept 60 minutes after introduction of anesthesia (90 minutes value).
In addition, blood was collected in a tube for hematocrit determination. After collected blood was centrifuged, plasma fraction was recovered and the blood sugar level was determined according to Test Example 1.
The changed value of the blood sugar level was calculated by deducting Pre value of each rat plasma from 90 minutes value of each rat plasma.

SMILES: CC[C@H](C)[C@H](N)C(=O)O [isoleucine]
- time at which blood sugar level reached the maximum (peak) (blood sugar level [1]): 30 min
- area under the blood sugar level curve (AUC, 0-120 min) compared to control group (blood sugar level [2]; anesthesia group (Somnopentyl i.p.)): significant decrease
- area under the blood sugar level curve (AUC, 0-120 min) compared to control group (blood sugar level [2]; non-anesthesia group): decreased compared to that of the control group

SMILES: CC(C)C[C@H](N)C(=O)O [leucine]
- increase of serum insulin value under anesthesia relative to non-anesthesia (serum insulin value; 30 minutes): 1.7 times
- increase of serum insulin value under anesthesia relative to non-anesthesia (serum insulin value; 90 minutes): 9.9 times
- increase of serum insulin value under anesthesia relative to non-anesthesia (serum insulin value; 180 minutes): 16.2 times
- decrease extent of blood sugar level in the anesthesia group compared to non-anesthesia group (blood sugar level [3]): 2.7 times
- changed value of the blood sugar level (90 minutes value minus Pre value) (blood sugar level [3]; anesthesia group (Pentobarbital Sodium)): decrease in blood sugar level was recognized
- changed value of the blood sugar level (90 minutes value minus Pre value) (blood sugar level [3]; non-anesthesia group): decrease in blood sugar level was recognized
- blood sugar level compared with glucose administration group (blood sugar level [1]; 90 and 180 minutes after the start of the test): lower significantly
- time at which blood sugar level reached the maximum (peak) (blood sugar level [1]): 30 min

Reference: patent US8273717B2, “Inhibitor for perioperative blood sugar elevation” (Otsuka Pharmaceutical Factory, Inc., priority 2003, dated 2012)
